Results reported in paper PMC10132233 (Journal of Enzyme Inhibition and Medicinal Chemistry, 2023).

Tests used:
[1] = target: T1, fibroblast growth factor receptor 1 (FGFR1) (Homo sapiens, UniProt P11362); assay: Small kinase panel, FGFR1; format: biochemical; conditions: read-out: % kinase inhibition (relative to DMSO control) FGFR1
T1 construct: purchased Reaction Biology Co. (Malvern, PA)
Procedure: Enzyme inhibitory assays were carried out as described in our previous reports in the literature. […] The HotSpot assay platform includes specific kinase/substrate pairs and required cofactors. The base reaction buffer consisted of 20 mM Hepes (pH 7.5), 10 mM MgCl2, 1 mM EGTA, 0.02% Brij35, 0.02 mg/mL BSA, 0.1 mM Na3VO4, 2 mM DTT, and 1% DMSO. The tested compounds were dissolved in 100% DMSO to a specific concentration, and serial dilution was conducted. The reaction mixture containing the tested compound and 33P-ATP was incubated at room temperature for 2 h, and radioactivity was detected using the filter-binding method.

[2] = test system: PC3 prostate carcinoma cell line; assay: MTT cytotoxicity assay, PC3; format: cell-based; conditions: Homo sapiens, 24 h
Text: Accordingly, we aimed to investigate the cytotoxic potential of this new series against prostate carcinoma cell lines. […] The potent nanomolar cell-based activity of this series of compounds over the tested prostate carcinoma cell line could be attributed to other possible targets in addition to EGFR and HER2 receptors. The presence of the 2-nitroimidazole moiety in the chemical structure of compounds 9a–h could develop possible covalent bonds between the nitroimidazole moiety and some cellular proteins.
Prostate cancer cell lines (PC3 and 22RV1) of American Type Culture Collection (ATCC) were obtained from Korean Cell Center (KCL). PC3 and 22RV1 cell lines were cultured in Roswell Park Memorial Institute Medium (RPMI) 1640 and Dulbecco’s modified Eagle’s medium (DMEM) (GenDepot, Barker, TX) supplemented with 1% penicillin–streptomycin and 10% foetal bovine serum (FBS). The cells were maintained at 37 °C in a 5% CO2 with a 95% humid atmosphere.
To further analyse the intracellular cytotoxicity effect of the as-synthesised compounds, MTT assay was performed. Moreover, the experiments were divided into subcategories. In each group, cancer cells were first seeded in 96-well plates (4 × 10^4 cells per well) and then incubated for 24 h at 37 °C in a 5% CO2-containing atmosphere. Subsequently, the medium from the culture plate was removed, and 100 µL of RPMI media containing different concentrations of compounds (0.01, 0.005, 0.0025, 0.00125, and 0.000625 µM) were then added into the cell lines in each well and incubated for 24 h in a 5% CO2 humidified incubator at 37 °C. Afterwards, MTT solution (150 μL, 1 mg/mL) was added to each well, replacing the media-containing compounds. After 4 h of incubation, the MTT reagent was removed, and 200 μL of DMSO was then added to dissolve the formazan crystals, and colour intensity was measured at a wavelength of 540 nm using a BioTek Synergy H1 instrument (BioTek, Winooski, VT). IC50 was calculated according to the equation of Boltzmann sigmoidal concentration–response curve using Graph Pad Prism 5 (La Jolla, CA).

[3] = test system: 22RV1 cells; assay: Cell cycle analysis (PI, ADAMII LS), 22RV1; format: cell-based, human; conditions: 22RV1, compound at its IC50, 24 h
Procedure: (§1) Cell cycle progression is responsible for normal cell growth and proliferation. DNA damage can result in apoptosis, which causes cell death, or DNA repair. At specific checkpoints that serve as control mechanisms to guarantee correct cell division, the state of the cells is evaluated. Checkpoints in the cell cycle include the G1 (restriction), S […], and G2/M[29]. Anticancer medications’ function is to halt cell division at these checkpoints. Treatment with potent cytotoxic (as an anticancer) agents can determine at which phase apoptosis occurs in the cell cycle. […] PC3 and 22RV1 cells were treated with compound 9f at its IC50. The comparison data in Table 6 and Figure 3 indicate that compound 9f (test 2) arrested the cell cycle of 22RV1 and PC3 cells at the G2/M phase by 62.74% and 49.43%, respectively (Figure 3). Also, the cell population in G1 and S phases decreases after treatment (test 2) compared to a negative control (test 1).
(§2) To determine the effect of the tested compound on the cell cycle distribution of PC3 and 22RV1 cell lines. Cell cycles can be analysed with checking the cell cycle change compared to the control group. Control cells without any treatment were used as a reference point for determining the cell cycle arrest phase for the test sample. Cell cycle analysis was performed using the Cell Cycle Analysis Kit (ADAMII LS, NanoEntek, Seoul, South Korea). Briefly, cancer cells were first seeded in six-well plates (0.8 × 10^6 cells per well) and then incubated for 24 h at 37 °C in a 5% CO2-containing atmosphere. […] 25 µL of sample mixture was loaded into ADAMII LS assay slide, then the slide was incubated at room temperature for 1 min in the dark and run on the ADAMII LS fluorescence cell analyser. Cell cycle distribution was calculated using ADAMII LS software (ADAMII LS, NanoEntek, Seoul, South Korea).

[4] = test system: PC3 cells; assay: Cell cycle analysis (PI, ADAMII LS), PC3; format: cell-based, human; conditions: PC3, compound at its IC50, 24 h
Procedure: as §1, §2

T1 sequence (P11362 22-822): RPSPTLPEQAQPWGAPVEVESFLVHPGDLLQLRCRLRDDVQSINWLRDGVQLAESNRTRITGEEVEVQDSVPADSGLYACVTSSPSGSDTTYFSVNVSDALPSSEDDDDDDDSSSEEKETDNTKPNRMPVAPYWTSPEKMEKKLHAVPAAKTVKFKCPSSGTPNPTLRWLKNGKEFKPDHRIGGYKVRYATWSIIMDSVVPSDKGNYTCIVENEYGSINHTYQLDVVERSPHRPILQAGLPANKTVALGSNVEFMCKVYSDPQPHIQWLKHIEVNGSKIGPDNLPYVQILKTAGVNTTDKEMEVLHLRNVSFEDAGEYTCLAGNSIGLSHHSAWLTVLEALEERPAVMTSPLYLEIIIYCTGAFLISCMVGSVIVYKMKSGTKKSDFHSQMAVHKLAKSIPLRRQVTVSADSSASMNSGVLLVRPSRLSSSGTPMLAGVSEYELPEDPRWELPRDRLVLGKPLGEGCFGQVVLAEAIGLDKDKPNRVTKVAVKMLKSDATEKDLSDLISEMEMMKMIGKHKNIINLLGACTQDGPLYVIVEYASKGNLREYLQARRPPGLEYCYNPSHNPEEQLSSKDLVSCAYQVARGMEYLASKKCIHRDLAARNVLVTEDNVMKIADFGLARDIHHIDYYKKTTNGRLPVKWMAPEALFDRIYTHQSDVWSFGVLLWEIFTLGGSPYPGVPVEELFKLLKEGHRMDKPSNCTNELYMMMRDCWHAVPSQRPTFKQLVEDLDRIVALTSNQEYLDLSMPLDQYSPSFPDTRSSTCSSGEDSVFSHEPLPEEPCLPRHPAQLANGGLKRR

Q: With `COc1cc2ncnc(Nc3ccc(Oc4cccc(C(F)(F)F)c4)c(Cl)c3)c2cc1OCCCCn1ccnc1[N+](=O)[O-]` [Compound 9f, N-(3-Chloro-4-(3-(trifluoromethyl)phenoxy)phenyl)-7-methoxy-6-(4-(2-nitro-1H-imidazol-1-yl)butoxy)quinazolin-4-amine] as the molecule, how does the inhibition at 10 µM [1] read?
A: 5.54%

Q: What about the IC50 [2] of the same molecule?
A: 1 nM

Q: What about the “G0/G1 phase Percent” value [3] of the same molecule?
A: 6.08%

Q: And the “G2/M phase Percent” value [3]?
A: 62.74%

Q: What about the “S phase Percent” value [3] of the same molecule?
A: 9.13%

Q: What about the “G0/G1 phase Percent” value [4] of the same molecule?
A: 7.22%

Q: And the “G2/M phase Percent” value [4]?
A: 49.43%

Q: What about the “S phase Percent” value [4] of the same molecule?
A: 28.14%
